Measured values published in PubChem BioAssay (NCI).
Where “and” joins values, the source holds several entries; their conditions need not be identical. Identical values can stand only once.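 All cell lines were grown in 96-well plates and treated with compound for 48 hours. Here, GI50 denotes the concentration required for 50% inhibition of growth. TGI: concentration producing complete growth inhibition.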

Key:
Test in all cases: inhibition of tumour cell growth, NCI panel, 48 h
[1] = tested on: MALME-3M melanoma
[2] = tested on: SK-MEL-5 melanoma
[3] = tested on: RXF 393 renal
[4] = tested on: UACC-62 melanoma
[5] = tested on: IGROV1 ovarian
[6] = tested on: A498 renal
[7] = tested on: NCI-H23 lung
[8] = tested on: A549 NSCLC
[9] = tested on: SK-OV-3 ovarian
[10] = tested on: DU-145 prostate

SMILES | GI50 [1] [µM] | TGI [1] | GI50 [2] | TGI [2] [µM] | GI50 [3] | TGI [3] | GI50 [4] | TGI [4] [µM] | GI50 [5] [µM] | TGI [5] [µM] | GI50 [6] | TGI [6] | GI50 [7] | TGI [7] [µM] | GI50 [8] | TGI [8] [µM] | GI50 [9] [µM] | TGI [9] [µM] | GI50 [10] | TGI [10] [µM]
O=C1/C(=C/c2cccc(Br)c2)COc2ccc(O)cc21 | 2.36 | 6.65 µM | 1.91 µM | 4.35 | 2.12 µM | 5.99 µM | 2.37 µM | 6.35 | 1.92 | 4.75 | 11.6 µM | 23.9 µM | 3.79 µM | 15.6 | 4.12 µM | 16.5 | 7.33 | 19.8 | 4.48 µM | 16.5
O=S(=O)(NCCNc1nccc(-c2c(-c3ccc(F)c(O)c3)nc3sccn23)n1)c1ccc(F)cc1 | 0.232 | 1.37 µM | 1.52 µM | 2.98 | 2.17 µM | 5.46 µM | 0.587 µM | 9.82 | 2.43 | 7.96 | 5.72 µM | 18.2 µM | 4.07 µM | 22.4 | 3.63 µM | 58 | 4.28 | 75.7 | 3.47 µM | 29.2
COc1cc2ncn(-c3cc(OCc4ccccc4C(F)(F)F)c(C(=O)N(C)C)s3)c2cc1OC | > 25 | > 25 µM | 6.7 µM | > 13.1 | 8.53 µM | > 18.7 µM | 21.6 µM | > 25 | > 25 | > 25 | 4.58 µM | > 23.5 µM | > 25 µM | > 25 | 24.9 µM | > 25 | > 16 | > 25 | > 25 µM | > 25
CC(=O)c1ccc2c(c1)C1C=CCC1[C@H](c1cc3c(cc1Br)OCO3)N2 (some centres not stated) | 0.86 | 45.8 µM | 1.13 µM | 5.81 | 1.85 µM | 3.35 µM | 1.46 µM | > 31.1 | 1.63 | > 64.9 | 0.482 µM | 2.14 µM | 2.24 µM | 33.4 | 2.03 µM | > 34.4 | 1.47 | 17.8 | 0.893 µM | 4.44
COc1cc(C2SCCCCCCCCCCSC(c3ccc(O)c(OC)c3)SCCCCCCCCCCS2)ccc1O (configuration not stated) | – | > 100 µM | – | > 100 | – | > 100 µM | – | > 100 | – | > 100 | – | > 100 µM | – | > 100 | – | > 100 | – | > 100 | – | > 100
O=C(NOC[C@H](O)CO)c1ccc(F)c(F)c1Nc1ccc(I)cc1F | < 0.01 | < 0.01 µM and 0.00323 µM | 4.17 µM and > 10 µM | > 100 | 0.363 µM and 0.342 µM | 43.4 µM and > 10 µM | < 0.01 µM and 0.00155 µM | – | – | > 100 | < 0.01 µM and 0.00351 µM | 0.0647 µM and 0.0694 µM | 0.0188 µM and 0.0537 µM | > 100 | 0.946 µM and 0.1 µM | > 100 | – | > 100 | 11.3 µM and 1.67 µM | > 100
COc1cc(F)c(F)c(Nc2ccc(I)cc2F)c1NS(=O)(=O)C1(C[C@H](O)CO)CC1 | 0.0198 | 0.22 µM | 1.02 µM | > 10 | 1.05 µM | > 9.5 µM | 0.0158 µM | 0.172 | 0.223 | > 5.56 | 0.0936 µM | 0.478 µM | 0.283 µM | > 10 | 0.628 µM | > 10 | 3.42 | > 10 | 5.02 µM | > 10
[C](#Cc1ccccc1)[Hg][C]#Cc1ccccc1 | 27.9 | 54.7 µM | 53.3 µM | > 100 | 16.5 µM | 34.9 µM | 24.3 µM | 53.7 | 29.7 | 97.5 | > 100 µM | > 100 µM | 37.8 µM | > 100 | 50.1 µM | > 100 | > 100 | > 100 | 48.2 µM | > 100
COc1ccccc1C#Cc1ccccc1C#CCCCCO | 22.4 | 65.6 µM | 14.1 µM | 29.5 | 13.8 µM | 29.8 µM | 16 µM | 30.7 | 15.3 | 32.2 | 13.3 µM | 27.9 µM | 19.1 µM | 37.7 | 16.3 µM | 36.5 | 17.9 | 40.7 | 14.3 µM | 29.5
